Test results as given in patent US6204293A, “Inhibitors of protein isoprenyl transferases” (University of Pittsburgh, priority 1998, dated 2001).
Structures can show the parent of a compound that is named as a salt.

molecular target: T1, Rat brain protein farnesyltransferase (Rattus norvegicus, UniProt Q02293+Q04631); experiment: % inhibition of farnesylation, scintillation proximity assay with biotin-K Ras B fragment; assay type: biochemical; conditions: Table 2; 1 × 10^-6 M
T1 construct: Rat brain protein farnesyltransferase activity is measured; from tissue; host or cells: rat brain
T1 sequence (Q02293 whole entry, the tested form may be a part, one chain of several): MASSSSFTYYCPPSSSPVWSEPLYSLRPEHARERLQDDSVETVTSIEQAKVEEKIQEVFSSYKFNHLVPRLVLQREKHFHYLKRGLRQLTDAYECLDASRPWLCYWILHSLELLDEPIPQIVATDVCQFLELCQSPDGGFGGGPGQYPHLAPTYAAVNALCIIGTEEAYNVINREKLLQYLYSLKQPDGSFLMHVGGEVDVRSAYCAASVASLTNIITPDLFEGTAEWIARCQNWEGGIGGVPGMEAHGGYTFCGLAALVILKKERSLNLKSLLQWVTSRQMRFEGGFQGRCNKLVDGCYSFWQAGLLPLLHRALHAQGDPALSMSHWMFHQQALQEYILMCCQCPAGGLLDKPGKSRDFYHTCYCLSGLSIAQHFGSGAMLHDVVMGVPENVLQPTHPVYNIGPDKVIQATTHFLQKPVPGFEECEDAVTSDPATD
Text: The ability of the compounds of the invention to inhibit protein farnesyltransferase or protein geranylgeranyltransferase can be measured according to the method of Moores, et al., J. Biol. Chem. 266: 14603 (1991) or the method of Vogt, et al., J. Biol. Chem. 270:660-664 (1995). In addition, procedures for determination of the inhibition of farnesylation of the oncogene protein Ras are described by Goldstein, et al., J. Biol. Chem., 266:15575-15578 (1991) and by Singh in U.S. Pat. No. 5,245,061.
In addition, in vitro inhibition of protein farnesyltransferase may be measured by the following procedure. Rat brain protein farnesyltransferase activity is measured using an Amersham Life Science commercial scintillation proximity assay kit and substituting a biotin-K Ras B fragment (biotin-[…]CO2 H), 0.1 mM final concentration, for the biotin-lamin substrate provided by Amersham. The enzyme is purified according to Reiss, Y., et al., Cell, 62: 81-88 (1990), utilizing steps one through three.
The % inhibition of protein farnesyltransferase was determined for representative compounds of the invention.

SMILES	% inhibition at 1 × 10^-6 M [%]
CSCC[C@H](NC(=O)c1ccc(/C=C/CC2CCCCC2)cc1-c1ccccc1C)C(=O)O [Example 471]	94
CSCC[C@H](NC(=O)c1ccc(/C=C/CCc2ccccc2)cc1-c1ccccc1C)C(=O)O [Example 472]	97
CSCC[C@H](NC(=O)c1ccc(CCCC(=O)c2ccc3ccccc3c2)cc1-c1ccccc1C)C(=O)O [Example 473]	96
CSCC[C@H](NC(=O)c1ccc(/C=C/CC(O)c2ccc3ccccc3c2)cc1-c1ccccc1C)C(=O)O (stereo partly shown) [Example 474]	92
CSCC[C@H](NC(=O)c1ccc(NCC(CO)(Cc2ccccc2)Cc2ccccc2)cc1-c1ccccc1C)C(=O)O [Example 475]	21
CSCC[C@H](NC(=O)c1ccc(NCC(CO)Cc2ccccc2)cc1-c1ccccc1C)C(=O)O (stereo partly shown) [Example 476]	91
CSCC[C@H](NC(=O)c1ccc(CCCCC2CCCCC2)cc1-c1ccccc1C)C(=O)O [Example 478]	98
CSCC[C@H](NC(=O)c1ccc(NCC(CO)CC2CCCCC2)cc1-c1ccccc1C)C(=O)O (stereo partly shown) [Example 479]	95
CSCC[C@H](NC(=O)c1ccc(C=CCCCc2ccccc2)cc1-c1ccccc1C)C(=O)O [Example 480]	87
CSCC[C@H](NC(=O)c1ccc(NC(=O)c2cnccc2C(F)(F)F)cc1-c1ccccc1C)C(=O)O [Example 481]	95
CSCC[C@H](NC(=O)c1ccc(/C=C/c2cncnc2)cc1-c1ccccc1C)C(=O)O [Example 494]	96
CSCC[C@H](NC(=O)c1ccc(/C=C/c2cnccn2)cc1-c1ccccc1C)C(=O)O [Example 495]	95
CSCC[C@H](NC(=O)c1ccc(C=CCc2ccc3ccccc3c2)cc1-c1ccccc1C)C(=O)O [Example 496]	93
CSCC[C@H](NC(=O)c1ccc(NCCO)cc1-c1ccccc1)C(=O)O [Example 502]	24
CSCC[C@H](NC(=O)c1ccc(NC(=O)[C@@H](N)COCc2ccccc2)cc1-c1ccccc1)C(=O)O [Example 503]	57

Further lines, results first:

% inhibition at 1 × 10^-6 M [%]	SMILES
90	CSCC[C@H](NC(=O)c1ccc(CN(Cc2ccccc2)Cc2ccco2)cc1-c1ccccc1C)C(=O)O [Example 504]
72	CSCC[C@H](NC(=O)c1ccc(CN(CCO)c2ccccc2)cc1-c1ccccc1)C(=O)O [Example 505]
96	CSCC[C@H](NC(=O)c1ccc(CN(CCc2ccccc2)c2ccccc2)cc1-c1ccccc1C)C(=O)O [Example 507]
95	CSCC[C@H](NC(=O)c1ccc(CN(CCCc2ccccc2)c2ccccc2)cc1-c1ccccc1C)C(=O)O [Example 508]
77	CSCC[C@H](NC(=O)c1ccc(CN(CC(c2ccccc2)c2ccccc2)c2ccccc2)cc1-c1ccccc1C)C(=O)O [Example 509]
84	CSCC[C@H](NC(=O)c1ccc(CN(CC23CC4CC(CC(C4)C2)C3)c2ccccc2)cc1-c1ccccc1C)C(=O)O [Example 510]
94	CSCC[C@H](NC(=O)c1ccc(CN(Cc2ccccc2)Cc2ccccc2)cc1-c1ccccc1C)C(=O)O [Example 512]
96	CSCC[C@H](NC(=O)c1ccc(CN(CCc2ccccc2)Cc2ccccc2)cc1-c1ccccc1C)C(=O)O [Example 513]
94	CSCC[C@H](NC(=O)c1ccc(CN(Cc2ccccc2)Cc2cccc(Oc3ccccc3)c2)cc1-c1ccccc1C)C(=O)O [Example 514]
72	CSCC[C@H](NC(=O)c1ccc(CN(CCO)Cc2ccccc2)cc1-c1ccccc1)C(=O)O [Example 515]
95	CSCC[C@H](NC(=O)c1ccc(CN(C)CCc2ccccc2)cc1-c1ccccc1C)C(=O)O [Example 516]
99	CSCC[C@H](NC(=O)c1ccc(CNC(CC2CCCCC2)C(O)C(O)CC(C)C)cc1-c1ccccc1C)C(=O)O (stereo partly shown) [Example 528]

same assay, conditions: Table 3; 1 × 10^-7 M

% inhibition at 1 × 10^-7 M [%]	SMILES
82	CSCC[C@H](NC(=O)c1ccc(CN(CCC23CC4CC(CC(C4)C2)C3)c2ccccc2)cc1-c1ccccc1C)C(=O)O [Example 511]
89	CSCC[C@H](NC(=O)c1ccc(CNCCc2c[nH]c3ccccc23)cc1-c1ccccc1C)C(=O)O [Example 519]
97	CSCC[C@H](NC(=O)c1ccc(CN[C@H](CO)C2CCCCC2)cc1-c1ccccc1C)C(=O)O [Example 520]
97	CSCC[C@H](NC(=O)c1ccc(CNC(Cc2ccccc2)Cc2ccccc2)cc1-c1ccccc1C)C(=O)O [Example 523]
99	CSCC[C@H](NC(=O)c1ccc(CNC(CC2CCCCC2)CC2CCCCC2)cc1-c1ccccc1C)C(=O)O [Example 524]
96	CSCC[C@H](NC(=O)c1ccc(CN[C@H](/C=C\CC(C)C)CC2CCCCC2)cc1-c1ccccc1C)C(=O)O [Example 526]
97	CSCC[C@H](NC(=O)c1ccc(CN[C@H](CCCC(C)C)CC2CCCCC2)cc1-c1ccccc1C)C(=O)O [Example 527]

SMILES	% inhibition at 1 × 10^-7 M [%]
CSCC[C@H](NC(=O)c1ccc(C#Cc2cncnc2)cc1-c1ccccc1C)C(=O)[O-].[Li+] [Example 493]	51

same assay, conditions: Table 4; 1 × 10^-8 M

% inhibition at 1 × 10^-8 M [%]	SMILES
90	CSCC[C@H](NC(=O)c1ccc(CN(CCc2ccccc2)c2cncnc2)cc1-c1ccccc1C)C(=O)O [Example 518]

same assay, conditions: read-out: % inhibition at 1 × 10^-6 M; Table 2; 1 × 10^-6 M

SMILES	inhibition at 1 µM [%]
CSCC[C@H](NC(=O)c1ccc(Sc2ccc3ccccc3c2)cc1-c1ccccc1C)C(=O)O [Example 497, N-[4-(naphth-2-ylthio)-2-(2-methylphenyl)benzoyl]methionine]	94
CSCC[C@H](NC(=O)c1ccc(SCCc2ccccc2)cc1-c1ccccc1C)C(=O)O [Example 498, N-[4-(2-phenylethylthio)-2-(2-methylphenyl)benzoyl]methionine]	98

The remaining lines, values ahead:

inhibition at 1 µM [%]	SMILES
99	CCOC[C@H](CC1CCCCC1)OCc1ccc(C(=O)N[C@@H](CCSC)C(=O)O)c(-c2ccccc2C)c1 [Example 525, N-[4-(3-Cyclohexyl-1-ethoxypropan-2-yl)oxymethyl-2-(2-methylphenyl)benzoyl]methionine lithium salt]
94	CSCC[C@H](NC(=O)c1ccc(COCc2ccoc2)cc1-c1ccccc1C)C(=O)O [Example 530, N-[4-(furan-3-ylmethoxymethyl)-2-(2-methylphenyl)benzoyl]methionine litihium salt]

same assay, conditions: read-out: % inhibition at 1 × 10^-7 M

SMILES	inhibition at 0.1 µM [%]
CSCC[C@H](NC(=O)c1ccc(COC(Cc2ccccc2)Cc2ccccc2)cc1-c1ccccc1C)C(=O)O [Example 522, N-[4-(1,3-diphenylpropan-2-yl)oxymethyl-2-(2-methylphenyl)benzoyl]methionine lithium salt]	93
CSCC[C@H](NC(=O)c1ccc(COCCc2ccco2)cc1-c1ccccc1C)C(=O)O [Example 531, N-[4-(2-furan-2-ylethoxymethyl)-2-(2-methylphenyl)benzoyl]methionine lithium salt]	74

same assay, conditions: read-out: % inhibition at 1 × 10^-7 M; Table 3; 1 × 10^-7 M

inhibition at 0.1 µM [%]	SMILES
94	C=C(C)C1CC=C(COCc2ccc(C(=O)N[C@@H](CCSC)C(=O)O)c(-c3ccccc3C)c2)CC1 (stereo partly shown) [Example 521, N-[4-(4-isoprop-2-enylcyclohexen-1-yl)methoxymethyl-2-(2-methylphenyl)benzoyl]methionine lithium salt]
